Measurements as given in patent US7214673B2, “Piperazine substituted aryl benzodiazepines and their use as dopamine receptor antagonists for the treatment of psychotic disorders” (Eli Lilly and Company, priority 2002, dated 2007).
Where a name gives a salt, the structure may show the parent alone.

Columns and labels:
Dopamine D2 receptor = biological target: T1, Dopamine D2 receptor (Homo sapiens, UniProt P14416); assay: Dopamine D2 receptor binding assay ([125I]iodospiperone); conditions: [125I]iodospiperone 0.1 nM, D2 receptor membranes, 2 hours at room temperature; read-out: Relative D2 Receptor Binding Affinity Ki
T1 construct: purchased Receptor Biology (now owned by NEN) RBHD2CM
Protocol: Serotonin 5-HT6 and Dopamine D2 Binding Assay Protocol
The assay buffers used are 50 mM Tris-HCl pH 7.4, 120 mM NaCl, 5 mM KCl, 5 mM MgCl2, 1 mM EDTA for the Dopamine D2s receptor binding assay. […] The membranes used are from Receptor Biology (now owned by NEN), Cat #RBHD2CM for the D2 receptor.
Compounds are obtained as 10 mM stocks in 100% DMSO. They are diluted to 1 mM in 100% DMSO by adding 180 μL DMSO to 20 μL of stock in 96 well plates using a multidrop. […] This is done using a TECAN robot.
The radioligand is diluted in assay buffer to provide 0.1 nM for the D2 assay. Each vial of membranes is diluted up to 92 mL in assay buffer. The final assay volume is 250 μL consisting of 210 μl of diluted membranes, 20 μL of compound or 10% DMSO for total binding, and 20 μL of diluted radioligand. The compounds are transferred from drug dilution plates into coming 96 well assay plates using a 96 well Multimek pipettor. Radioligand and membranes are added to assay plates using multidrop pipettors. Non-specific binding is determined in wells containing a final concentration of 5 μM haloperidol. The final drug concentration range in half logs is from 10 μM down to 0.1 nM.
After addition of drug, membrane, and ligand, the plates are incubated for 2 hours at room temperature. During this time 96 well Millipore filter plates (MAFBNOB50) are soaked for a least 30 minutes with 200 μL per well of 0.5% polyethyleneimine.
The 0.5% PEI is removed from filterplate wells using a TiterTek MAP aspirator and 200 μL of the incubation mixture is transferred from the incubation plate to the filterplate after mixing. This transfer is done using the 96 tip Mutimek pipettor. After transfer to the filterplate filterplates are extracted and ished twice with 220 μL per well of cold buffer on the MAP aspirator. The peel away bottoms are removed from the filterplates and 60 μL per well of microscint 20 scintillation fluid is added per well using a multidrop. Plates are placed into suitable holders and are left at room temperature for 3 hours and are counted for ^3H in either a Wallac Microbeta counter or on a Packard Topcount.

T1 sequence (P14416 1-414 isoform P14416-2): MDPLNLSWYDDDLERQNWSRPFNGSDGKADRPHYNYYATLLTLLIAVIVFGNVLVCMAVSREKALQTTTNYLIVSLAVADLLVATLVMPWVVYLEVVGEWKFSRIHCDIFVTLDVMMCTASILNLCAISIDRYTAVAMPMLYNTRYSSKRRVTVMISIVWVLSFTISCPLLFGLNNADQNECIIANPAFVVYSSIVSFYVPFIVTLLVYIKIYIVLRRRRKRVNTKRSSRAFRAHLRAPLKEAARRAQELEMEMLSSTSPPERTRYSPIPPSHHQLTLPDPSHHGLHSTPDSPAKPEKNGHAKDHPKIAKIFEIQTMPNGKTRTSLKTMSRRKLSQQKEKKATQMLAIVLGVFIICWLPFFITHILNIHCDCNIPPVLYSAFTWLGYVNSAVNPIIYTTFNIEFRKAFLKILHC

| SMILES | Ki (Dopamine D2 receptor) | melting point |
| --- | --- | --- |
| CC(C)n1nc2c(n1)C(N1CCN[C@@H](CCc3ccccc3)C1)=Nc1ccccc1N2 [Example 594, (S)-2-Isopropyl-10-(3-phenethyl-piperazin-1-yl)-2,4-dihydro-1,2,3,4.9-pentaaza-benzo[f]azulene dihydrochloride hemihydrate] | < 10 nM |  |
| Cc1nc2c(s1)Nc1ccccc1N=C2N1CCN[C@@H](CCc2ccccc2)C1 [Example 460, (S)-2-Methyl-10-(3-phenethyl-piperazin-1-yl)-4H-3-thia-1,4,9-triaza-benzo[f]azulene dihydrochloride hemihydrate] | < 10 nM |  |
| Cc1cc2c(s1)Nc1ccccc1N=C2N1CCN[C@@H](CCc2cccc(F)c2)C1 [Example 177, 10-((S)-3-(2-(3-Fluoro-phenyl)-ethyl)-piperazin-1-yl))-2-methyl-4H-3-thia-4,9-diaza-benzo[f]azulene dihydrochloride] | 10 to 100 nM |  |
| COc1ccc(CC[C@H]2CN(C3=Nc4ccccc4Nc4sc(C)cc43)CCN2)cc1 [Example 179, 10-((S)-3-(2-(4-methoxy-phenyl)-ethyl)-piperazin-1-yl)-2-methyl-4H-3-thia-4,9-diaza-benzo[f]azulene dihydrochloride] | < 10 nM |  |
| Cc1nc2c(s1)Nc1ccccc1N=C2N1CCN(C)[C@@H](CCc2ccccc2)C1 [Example 461, (S)-2-Methyl-10-(4-methyl-3-phenethyl-piperazin-1-yl)-4H-3-thia-1,4,9-triaza-benzo[f]azulene dihydrochloride hemihydrate] | 10 to 100 nM |  |
| Cc1cc2c(s1)Nc1ccccc1N=C2N1CCN(C)[C@@H](CCc2cccc(F)c2)C1 [Example 183, 10-((S)-3-(2-(3-Fluoro-phenyl)-ethyl)-4-methyl-piperazin-1-yl)-2-methyl-4H-3-thia-4,9-diaza-benzo[f]azulene dihydrochloride] | 10 to 100 nM |  |
| Cc1cc2c(s1)Nc1ccccc1N=C2N1CCN(C)[C@@H](Cc2cccc(Cl)c2)C1 [Example 119] | 10 to 100 nM |  |
| Cc1cc2c(s1)Nc1ccccc1N=C2N1CCN(C)[C@@H](CCc2ccc(F)cc2)C1 [Example 182, 10-((S)-3-(2-(4-Fluoro-phenyl)-ethyl]-4-methyl-piperazin-1-yl)-2-methyl-4H-3-thia-4,9-diaza-benzo[f]azulene dihydrochloride] | 10 to 100 nM |  |
| COc1ccccc1C[C@H]1CN(C2=Nc3ccccc3Nc3sc(C)nc32)CCN1C (as salt: hydrochloride) |  | 185 °C |
| Cc1cc2c(s1)Nc1ccccc1N=C2N1CCN[C@@H](CCc2ccc(F)cc2)C1 (as salt: hydrochloride) [Example 176, 10-((S)-3-(2-(4-Fluorophenyl)-ethyl)-piperazin-1-yl)-2-methyl-4H-3-thia-4,9-diaza-benzo[f]azulene dihydrochloride] |  | 236 °C (dec.) |
| COc1ccc(CC[C@H]2CN(C3=Nc4ccccc4Nc4sc(C)cc43)CCN2C)cc1 (as salt: hydrochloride) [Example 185, 10-((S)-3-(2-(4-Methoxy-phenyl)-ethyl)-4-methyl-piperazin-1-yl)-2-methyl-4H-3-thia-4,9-diaza-benzo[f]azulene dihydrochloride] |  | 239 °C (dec.) |
| Cc1ccc2c(c1)Nc1ccccc1N=C2N1CCN[C@@H](CCc2cccc(F)c2)C1 [Example 577, 11-{(S)-3-[2-(3-Fluoro-phenyl)-ethyl]-piperazin-1-yl}-3-methyl-5H-dibenzo[b,e][1,4]diazepine] |  | 81 °C (dec.) |
| Cc1cc2c(s1)Nc1ccccc1N=C2N1CCN[C@@H](CCc2cccc(C(F)(F)F)c2)C1 [Example 395, 10-((S)-3-[2-(3-Trifluoromethyl-phenyl)-ethyl]-piperazin-1-yl)-2-methyl-4H-3-thia-4,9-diaza-benzo[f]azulene] |  | 69 °C (dec.) |
| COc1ccc(CC[C@H]2CN(C3=Nc4ccccc4Nc4sc(C(C)C)nc43)CCN2C)cc1 (as salt: hydrochloride) |  | 190 °C |
| CN1CCN(C2=Nc3ccccc3Nc3sc(C(C)(C)C)cc32)C[C@@H]1CCc1ccccc1 (as salt: hydrochloride) |  | 230 °C |
| Cc1cc2c(s1)Nc1ccccc1N=C2N1CCN(C)[C@@H](CCc2cccc(Cl)c2)C1 [Example 391, 10-((S)-3-[2-(3-Chloro-phenyl)-ethyl]-4-methyl-piperazin-1-yl)-2-methyl-4H-3-thia-4,9-diaza-benzo[f]azulene] |  | 69 °C (dec.) |
| Cc1nc2c(s1)Nc1ccccc1N=C2N1CCN(C)[C@@H](CCc2cccc(F)c2)C1 (as salt: hydrochloride) [Example 479, (S)-10-{3-[2-(3-Fluoro-phenyl)-ethyl]-4-methyl-piperazin-1-yl}-2-methyl-4H-3-thia-1,4,9-triaza-benzo[f]azulene dihydrochloride] |  | 230 °C |
| Cc1cc2c(s1)Nc1ccccc1N=C2N1CCN(C)[C@@H](CCc2ccccc2C(F)(F)F)C1 [Example 397, 10-((S)-3-[2-(2-Trifluoromethyl-phenyl)-ethyl]-4-methyl-piperazin-1-yl)-2-methyl-4H-3-thia-4,9-diaza-benzo[f]azulene] |  | 68 °C (dec.) |
| Cc1cc2c(s1)Nc1ccccc1N=C2N1CCN[C@@H](CCc2cccc(Cl)c2)C1 [Example 387, 10-((S)-3-[2-(3-Chloro-phenyl)-ethyl]-piperazin-1-yl)-2-methyl-4H-3-thia-4,9-diaza-benzo[f]azulene] |  | 68 to 74 °C (dec.) |
| CC(C)c1nc2c(s1)Nc1ccccc1N=C2N1CCN(C)[C@@H](Cc2ccccc2)C1 (as salt: hydrochloride) [Example 477, (S)-10-(3-Benzyl-4-methyl-piperazin-1-yl)-2-isopropyl-4H-3-thia-1,4,9-triaza-benzo[f]azulene dihydrochloride] |  | 235 °C |
| Cc1cc2c(s1)Nc1ccccc1N=C2N1CCN(C)[C@@H](CCc2ccccc2Cl)C1 [Example 392, 10-((S)-3-[2-(2-Chloro-phenyl)-ethyl]-4-methyl-piperazin-1-yl)-2-methyl-4H-3-thia-4,9-diaza-benzo[f]azulene] |  | 72 °C (dec.) |
| COc1ccccc1CC[C@H]1CN(C2=Nc3ccccc3Nc3sc(C)cc32)CCN1C (as salt: hydrochloride) [Example 187, 10-((S)-3-(2-(2-Methoxy-phenyl)-ethyl)-4-methyl-piperazin-1-yl)-2-methyl-4H-3-thia-4,9-diaza-benzo[f]azulene dihydrochloride] |  | 213 °C (dec.) |
| Cc1cc2c(s1)Nc1ccccc1N=C2N1CCN[C@@H](CCc2ccccc2C(F)(F)F)C1 [Example 394, 10-((S)-3-[2-(2-Trifluoromethyl-phenyl)-ethyl]-piperazin-1-yl)-2-methyl-4H-3-thia-4,9-diaza-benzo[f]azulene] |  | 73 °C (dec.) |
| CC(C)(C)c1cc2c(s1)Nc1ccccc1N=C2N1CCN[C@@H](CCc2ccccc2)C1 [Example 445, (S)-2-tert-Butyl-10-(3-phenethyl-piperazin-1-yl)-4H-3-thia-4,9-diaza-benzo[f]azulene] |  | 93 to 96 °C |
| Cc1cc2c(s1)Nc1ccccc1N=C2N1CCN[C@@H](CCc2ccccn2)C1 (as salt: hydrochloride) [Example 132] |  | 220 to 224 °C (dec.) |
| Cc1ccc2c(c1)C(N1CCN(C)[C@@H](CCc3ccccc3)C1)=Nc1ccccc1N2 [Example 581, 2-Methyl-11-[4-methyl-(S)-3-phenethyl-piperazin-1-yl]-5H-dibenzo[b,e][1,4]diazepine] |  | 65 °C (dec.) |
